Measured values reported in US20260337153A1, “IONIZABLE AMINE LIPIDS” (Intellia Therapeutics, Inc., priority 2023, published 2026).
Values joined by “and” are separate entries in the source; they are usually repeats but may differ in a detail not shown here. Equal entries are not always repeated. Where two headings read alike, the source gives them in different places.

How the values were obtained:
Type in all cases: physicochemical
[1] = pKa of unformulated amine lipid by TNS fluorescence
In short: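 Unformulated amine lipid was diluted from ethanol stock to approx. 100 μM in 0.1 M sodium phosphate buffers spanning pH 4.5–9.0 with TNS. Fluorescence read at ex 321/em 448 nm; normalized data fitted sigmoidally to give pKa.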

[2] = LNP encapsulation efficiency of RNA (Ribogreen fluorescence assay); conditions: sgRNA:mRNA 1:2
In short: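 RiboGreen fluorescence (ex 488/em 525 nm) measured total RNA in 1×TE with 0.2% Triton X-100 and free RNA in 1×TE alone, against standard curves of the starting RNA; encapsulation = (total − free)/total. Total RNA alternatively quantified after Triton disruption by RP-IP HPLC, UV 260 nm.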

[3] = LNP average particle size and polydispersity by dynamic light scattering; conditions: sgRNA:mRNA 1:2; for Number mean (average particle size) / PDI (polydispersity index) / Z-avg (average particle size): LNP with 50% ionizable lipid, 3% C13 Ether (LNP #1, Compound 53: 3% PEG2K-DMG instead)
In short: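 Z-average (intensity-based) and number-mean diameters plus PDI measured by DLS on LNP samples diluted in PBS. LNPs carried sgRNA and Cas9 mRNA at 1:2 w/w, with lipids at 50% ionizable lipid, 38% cholesterol, 9% DSPC and 3% PEG lipid (PEG2K-DMG, C13 Ether or C14 Ether).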

[4] = sodium phosphate buffer, Table 2, unformulated amine lipid, TNS, read-out: Lipid pKa
[5] = Table 3, Experiment 14, LNP with 3% C13 Ether
[6] = Table 3, Experiments 1-13, LNP 50% ionizable lipid, 38% cholesterol, 9% DSPC, 3% PEG2K-DMG
[7] = LNP with 50% ionizable lipid, 38% cholesterol, 9% DSPC, 3% C13 Ether (LNP #1, Compound 53: 3% PEG2K-DMG instead)

pKa [1, 4] | % E (encapsulation efficiency) [2, 6] | Number mean [3, 6] | PDI [3, 6] | Z-avg [3, 6] | % E (encapsulation efficiency) [2, 7] | Number mean (average particle size) ([3]; 38% cholesterol, 9% DSPC) | PDI (polydispersity index) ([3]; 38% cholesterol, 9% DSPC) | Z-avg (average particle size) ([3]; 38% cholesterol, 9% DSPC) | Structure (SMILES) | also measured
6.33 |  |  |  |  |  |  |  |  | CCCCCCCCC(CCCCCCCC)OC(=O)CCCC(=O)OCC(COC(=O)CCCC(=O)OC(CCCCCCCC)CCCCCCCC)COC(=O)CCCN(C)C [Compound 34, O,O′-(2-(((4-(dimethylamino)butanoyl)oxy)methyl)propane-1,3-diyl) di(heptadecan-9-yl) diglutarate] | % E (encapsulation efficiency) [2, 5]: 98%; Number mean [3, 5]: 61 nm; PDI [3, 5]: 0.032; Z-avg [3, 5]: 69 nm
6.23 | 98% | 65 nm and 72 nm | 0.01 | 79 nm and 76 nm |  |  |  |  | CCCCCCCCC(CCCCCCCC)OC(=O)CCCC(=O)OCC(COC(=O)CCCC(=O)OC(CCCCCCCC)CCCCCCCC)COC(=O)OCCCN(CC)CC [Compound 2, O,O′-(2-((((3-(diethylamino)propoxy)carbonyl)oxy)methyl)propane-1,3-diyl) di(heptadecan-9-yl) diglutarate] | % E (encapsulation efficiency) [2, 5]: 99%; Number mean [3, 5]: 74 nm; PDI [3, 5]: 0.017; Z-avg [3, 5]: 80 nm
6.66 | 99% | 77 nm | 0 | 82 nm |  |  |  |  | CCCCCCCCOC(CCC(=O)OCC(COC(=O)CCC(OCCCCCCCC)OCCCCCCCC)COC(=O)NCCN(CC)CC)OCCCCCCCC [Compound 22, 2-((((2-(diethylamino)ethyl)carbamoyl)oxy)methyl)propane-1,3-diyl bis(4,4-bis(octyloxy)butanoate)] | 
5.85 | 98% | 64 nm | 0.03 | 69 nm |  |  |  |  | CCCCCCCCC(CCCCCCCC)OC(=O)CCCCCCC(COC(=O)CCCC(=O)OC(CCCCCCCC)CCCCCCCC)COC(=O)OCCCN(CC)CC (stereo not drawn) [Compound 8, 2-((((3-(diethylamino)propoxy)carbonyl)oxy)methyl)-9-(heptadecan-9-yloxy)-9-oxononyl heptadecan-9-yl glutarate] | 
 |  |  |  |  | 99% | 53 nm | 0.03 | 65 nm | CCCCCCCCC(CCCCCCCC)OC(=O)CCCCCCC(=O)OCC(CC)(COC(=O)CCCCCCC(=O)OC(CCCCCCCC)CCCCCCCC)COC(=O)OCCCN1CCCC1 [Compound 67, O′1,O1-(2-ethyl-2-((((3-(pyrrolidin-1-yl)propoxy)carbonyl)oxy)methyl)propane-1,3-diyl) 8,8′-di(heptadecan-9-yl) di(octanedioate)] | pKa ([1]; read-out: pKa): 6.2
6.37 | 97% | 83 nm | 0.04 | 90 nm |  |  |  |  | CCCCC/C=C\C/C=C\CCCCCCCC(=O)OCC(CCCCCCCCC(=O)OC(CCCCCCCC)CCCCCCCC)COC(=O)NCCN(CC)CC (stereo not drawn) [Compound 10, 2-((((2-(diethylamino)ethyl)carbamoyl)oxy)methyl)-11-(heptadecan-9-yloxy)-11-oxoundecyl (9Z,12Z)-octadeca-9,12-dienoate] | 
 |  |  |  |  | 99% | 63 nm | 0.01 | 75 nm | CCCCCCCCC(CCCCCCCC)OC(=O)CCCCC(=O)OCC(COC(=O)CCCCC(=O)OC(CCCCCCCC)CCCCCCCC)COC(=O)NCCN(CC)CC [Compound 68, O,O′-(2-((((2-(diethylamino)ethyl)carbamoyl)oxy)methyl)propane-1,3-diyl) di(heptadecan-9-yl) diadipate] | pKa ([1]; read-out: pKa): 6.4
6.13 | 99% | 67 nm | 0.03 | 74 nm |  |  |  |  | CCCCC/C=C\C/C=C\CCCCCCCC(=O)OCC(CCCCC(=O)OC(CCCCCC)CCCCCC)COC(=O)OCCCN(CC)CC (stereo not drawn) [Compound 17, 2-((((3-(diethylamino)propoxy)carbonyl)oxy)methyl)-7-oxo-7-(tridecan-7-yloxy)heptyl (9Z,12Z)-octadeca-9,12-dienoate] | 

Structure (SMILES) | pKa [1, 4] | % E (encapsulation efficiency) [2, 6] | Number mean [3, 6] | PDI [3, 6] | Z-avg [3, 6] | % E (encapsulation efficiency) [2, 7] | Number mean (average particle size) ([3]; 38% cholesterol, 9% DSPC) | PDI (polydispersity index) ([3]; 38% cholesterol, 9% DSPC) | Z-avg (average particle size) ([3]; 38% cholesterol, 9% DSPC) | also measured
CCCCC/C=C\C/C=C\CCCCCCCC(=O)OCC(COC(=O)CCC(OCCCCCCCC)OCCCCCCCC)COC(=O)OCCCN(CC)CC (stereo not drawn) [Compound 53] |  | 98% and 99% and 94% and 97% |  |  | 94 nm and 89 nm and 96 nm and 92 nm and 90 nm and 91 nm and 95 nm | 98% | 71 nm | 0.04 | 87 nm | pKa ([1]; sodium phosphate buffer, additional ionizable lipids (53-61), unformulated amine lipid, TNS, read-out: Lipid pKa): 6.2; % E (encapsulation efficiency) ([2]; Table 5, PEG lipid C13 Ether): 97%; % E (encapsulation efficiency) ([2]; Table 5, PEG lipid C14 Ether): 99%; % E (encapsulation efficiency) ([2]; Table 5, PEG lipid PEG2K-DMG): 97%; Number mean ([3]; Table 5, PEG lipid C13 Ether): 80 nm; PDI ([3]; Table 5, PEG lipid C13 Ether): 0.02; Z-avg ([3]; Table 5, PEG lipid C13 Ether): 87 nm; Number mean ([3]; Table 5, PEG lipid C14 Ether): 90 nm; PDI ([3]; Table 5, PEG lipid C14 Ether): 0.01; Z-avg ([3]; Table 5, PEG lipid C14 Ether): 96 nm; Number mean ([3]; Table 5, PEG lipid PEG2K-DMG): 82 nm; PDI ([3]; Table 5, PEG lipid PEG2K-DMG): 0.01; Z-avg ([3]; Table 5, PEG lipid PEG2K-DMG): 87 nm
